Measurements: patent publication US20050147527A1, “Microbial destruction using a gas phase decontaminant” (priority 2004, published 2005)
Several values for one entry are separate records, joined by “and”; a condition that tells them apart may be missing. Equal entries are not always repeated. Where two headings read alike, the source gives them in different places.

Tests used:
Bacillus subtilis spores = system: Bacillus subtilis spores
Description: A protocol analogous to that used for the food crops was employed for spore testing on stainless steel coupons. 3-1.75 cm×3.75 cm stainless steel coupons were each inoculated (front & back) with a total of 100 μL of Bacillus subtilis spores. The spores were allowed to dry and the three coupons were aseptically transferred to a Ziploc® bag. The remaining protocol used was similar to that of the food crops except that each coupon was neutralized in 8 mL of 10% thiosulfate solution and each coupon's solution was serially diluted and plated onto media.

[1] = system: streptomycin-resistant S. aureus; conditions: 180° F.; for Log Post-Disinfection (CFU/g) / Log Reduction (CFU/g): DT 18 min
Description: (§1) The following experiments were performed using a system in accordance with the present invention. Food crops were pruned of inedible roots, leaves, etc., and weighed. A given food crop was then inoculated with a single challenge microorganism. All challenge microorganisms were purchased from ATCC as streptomycin-resistant strains-Esherichia coli (E. coli), Staphylococcus aureus (S. aureus), and Salmonella choleraesuis (S. choleraesuis). […] After inoculation, the crops were left to dry for 30 minutes to 1 hour. The crops were then placed in the Ziploc® bag and into the vacuum chamber. […] Parameters such as vacuum pressure, dispensing time, and sterilization wait time were varied in order to arrive at some conclusion concerning the optimum conditions for effective disinfection of the food crops. After the disinfection cycle had ended, the crops were neutralized in 50 mL of 10% thiosulfate solution contained in a sterile mastication bag.
(§2) The bag was then placed in a masticator and pulverized for 2 minutes. The liquid contents were then serially diluted and plated onto the appropriate agar medium. The plates were incubated at 37° C. for 24 hours and plate counts were performed. […] A log reduction in terms of CFU/g was calculated by subtracting the plate counts of the disinfected food from that of its respective control, as shown in Table 1.
(§3) Lettuce was used as the food crop while streptomycin-resistant E. coli was chosen as the challenge microorganism. […] Each food crop was inoculated with streptomycin-resistant strains of E. coli, S. aureus, and S. choleraesuis in separate experiments and 3 minutes was used as the dispense time in every run.

[2] = system: streptomycin-resistant E. coli; conditions: 180° F.; for Log Post-Disinfection (CFU/g) / Log Reduction (CFU/g): DT 18 min
Description: as §1, §2, §3

[3] = system: streptomycin-resistant S. choleraesuis; conditions: Radishes; dispense time 3 min; 180° F.; 18 inch Hg; wait 0 min
Description: as §1, §2, §3

[4] = system: E. coli, S. aureus, S. choleraesuis
[5] = stainless steel coupons, 12 minute dispense time, 180° F., 18 inch Hg, wait 0 min
[6] = Lettuce, VP 15 inch Hg, SW 15 min
[7] = Radishes, VP 15 inch Hg, SW 30 min
[8] = Radishes, VP 20 inch Hg, SW 5 min
[9] = Radishes, VP 20 inch Hg, SW 10 min
[10] = Radishes, VP 20 inch Hg, SW 15 min
[11] = Radishes, dispense time 3 min, 18 inch Hg, wait 0 min
[12] = Carrots, VP 15 inch Hg, SW 10 min
[13] = Carrots, VP 15 inch Hg, SW 15 min
[14] = Carrots, VP 15 inch Hg, SW 20 min
[15] = Carrots, VP 15 inch Hg, SW 30 min
[16] = Carrots, VP 17 inch Hg, SW 5 min
[17] = Carrots, VP 18 inch Hg, SW 10 min
[18] = Lettuce, VP 15 inch Hg, SW 10 min
[19] = Radishes, VP 15 inch Hg, SW 10 min
[20] = Radishes, VP 15 inch Hg, SW 15 min
[21] = Table 3, Lettuce, dispense time 3 min, 18 inch Hg, wait 0 min

SMILES: OO [hydrogen peroxide]
- Log10 Post-Disinfection (CFU/cm^2) (Bacillus subtilis spores; [5]): 0 CFU/cm^2
- Log10 Reduction (CFU/cm^2) (Bacillus subtilis spores; [5]): 5.42 CFU/cm^2
- eradication of spores (Bacillus subtilis spores; within a 12 minute dispense time): completely eradicate spores
- Log Post-Disinfection (CFU/g) [1, 6]: 0 CFU/g
- Log Reduction (CFU/g) [1, 6]: 6.81 CFU/g
- Log Post-Disinfection (CFU/g) [1, 7]: 0 CFU/g
- Log Reduction (CFU/g) [1, 7]: 6.33 CFU/g
- Log Post-Disinfection (CFU/g) [1, 8]: 0 CFU/g
- Log Reduction (CFU/g) [1, 8]: 6.09 CFU/g
- Log Post-Disinfection (CFU/g) [1, 9]: 0 CFU/g
- Log Reduction (CFU/g) [1, 9]: 6.09 CFU/g
- Log Post-Disinfection (CFU/g) [1, 10]: 1.61 CFU/g
- Log Reduction (CFU/g) [1, 10]: 4.48 CFU/g
- Log10 Post-Disinfection (CFU/g) [1, 11]: 0 CFU/g
- Log10 Reduction (CFU/g) [1, 11]: ≧5.25 CFU/g
- Log Post-Disinfection (CFU/g) [2, 12]: 0 CFU/g
- Log Reduction (CFU/g) [2, 12]: 4.90 CFU/g
- Log Post-Disinfection (CFU/g) [2, 13]: 0 CFU/g
- Log Reduction (CFU/g) [2, 13]: 4.90 CFU/g
- Log Post-Disinfection (CFU/g) [2, 14]: 0 CFU/g
- Log Reduction (CFU/g) [2, 14]: 5.45 CFU/g
- Log Post-Disinfection (CFU/g) [2, 15]: 0 CFU/g
- Log Reduction (CFU/g) [2, 15]: 4.90 CFU/g
- Log Post-Disinfection (CFU/g) [2, 16]: 0 CFU/g
- Log Reduction (CFU/g) [2, 16]: 5.45 CFU/g
- Log Post-Disinfection (CFU/g) [2, 17]: 0 CFU/g
- Log Reduction (CFU/g) [2, 17]: 5.45 CFU/g
- Log Post-Disinfection (CFU/g) [2, 18]: 0 CFU/g
- Log Reduction (CFU/g) [2, 18]: 6.38 CFU/g
- Log Post-Disinfection (CFU/g) [2, 6]: 1.93 CFU/g
- Log Reduction (CFU/g) [2, 6]: 4.31 CFU/g
- Log Post-Disinfection (CFU/g) [2, 19]: 2.85 CFU/g
- Log Reduction (CFU/g) [2, 19]: 2.95 CFU/g
- Log Post-Disinfection (CFU/g) [2, 20]: 3.73 CFU/g
- Log Reduction (CFU/g) [2, 20]: 2.07 CFU/g
- Log10 Post-Disinfection (CFU/g) [2, 21]: 0 CFU/g
- Log10 Reduction (CFU/g) [2, 21]: ≧6.23 CFU/g
- Log10 Post-Disinfection (CFU/g) [3]: 1.67 CFU/g and 1.95 CFU/g and 1.82 CFU/g
- log reductions for every combination of food crop and microbial challenge (Table 3) ([4]; 3 minutes dispense time): greater than 3
- average log reduction of all of the runs shown in Table 1 ([4]; all food crops, microbial challenges and parameters of Table 1): 4.63
- log reduction (lowest over all runs of Table 1) ([4]; no matter the food crop, microbial challenge or disinfection parameters): ≥ 2
